Results reported in US20250099433A1, “COMPOSITION AND METHOD FOR TREATMENT OF GRAM NEGATIVE BACTERIAL INFECTION” (The Research Foundation for the State University of New York, priority 2021, published 2025).
≈ marks a conversion by molar mass, not a printed value. Where “and” joins values, the source holds several entries; their conditions need not be identical. Equal entries are not always repeated. Entries after “also recorded” stand apart in the source; their conditions may differ. Where two headings read alike, the source gives them in different places.

What was measured:
[1] = tested on: wild-type E. coli (K-12 MG1655); experiment: Post-antibiotic effect (PAE) in wild-type E. coli; assay type: cell-based, Escherichia coli; details: for PAE (h) 4x, Wild-type: 4xMIC for 1 h; for PAE (h) 16x, Wild-type: 16xMIC for 1 h; for PAE in wild-type E. coli: MIC multiple not stated or 4x and 16xMIC
From the text: FIG. 4. Post-antibiotic effect of the ecLpxC inhibitors on wild-type and FabZ* E. coli. […] PAE data for wild-type E. coli are in panels (a) PT805, (c) PT810 and (e) CHIR-090, and for FabZ* E. coli in (b) PT805, (d) PT810 and (f) CHIR-090.
PAE data for wild-type E. coli are in panels (a) PT805, (c) PT810 and (e) CHIR-090, and for FabZ* E. coli in (b) PT805, (d) PT810 and (f) CHIR-090.

[2] = tested on: FabZ*, hyperactive FabZ strain (L85P); experiment: microbe, parasite or virus in culture; assay type: cell-based, Escherichia coli; details: for MIC: Escherichia coli, read-out: MIC (μM) FabZ*
[3] = tested on: E. coli strain (K-12, MG1655); experiment: MIC by microbroth dilution, wild-type E. coli; assay type: cell-based, Escherichia coli; details: wild-type E. coli K-12 MG1655
FabZ* E. coli = assay type: cell-based, Escherichia coli; details: for PAE (h) 4x, FabZ*: 4xMIC for 1 h; for PAE (h) 16x, FabZ*: 16xMIC for 1 h; for PAE in FabZ* E. coli: MIC multiple not stated or 1x-16xMIC
From the text: FIG. 4. Post-antibiotic effect of the ecLpxC inhibitors on wild-type and FabZ* E. coli.
This included use of an E. coli strain (FabZ*) containing a hyperactive mutant of the fatty acid biosynthesis O-hydroxyacyl-ACP enzyme (FabZ), and determination of PAEs for wild-type E. coli in the presence of sub-MIC concentrations of macrolides.

P. aeruginosa PAO1 [4] = experiment: Post-antibiotic effect (PAE) in P. aeruginosa PAO1; details: 37° C.; for PAE (h) 4x: PAO1, 4xMIC for 1 h; for PAE (h) 8x: PAO1, 8xMIC for 1 h; for PAE (h) 16x: PAO1, 16xMIC for 1 h
Procedure: Post-antibiotic effect of the paLpxC inhibitors on wild-type P. aeruginosa. […] The experimental data points are the mean values from triplicate, independent measurements, and the error bars represent the standard deviation from the mean.
After incubating the plates overnight at 37° C., CFUs were enumerated, and the PAE values were calculated using a standard method where the time for the bacteria to recover 1 log post drug washout compared to the control was determined (FIG. 17, Table 6).
Post-antibiotic Effect (PAE). PAEs were determined using P. aeruginosa PAO1. […] The compound was washed out by diluting the culture 1000-fold into fresh CAMH-II medium, and the regrowth of bacteria was monitored by taking 100 μL aliquots each hour and plating serial dilutions on Muller-Hinton agar plates.

[5] = tested on: wild-type E. coli and FabZ* E. coli; experiment: Time kill assays in E. coli; details: 4xMIC (16xMIC in FIG. 3), CaMH media, 37° C.
Procedure: Each time point was performed in duplicate or triplicate and the entire experiment was performed in triplicate. The data points in the figure are the mean values from the independent measurements and the error bars represent the standard deviation from the mean.
The antimicrobial activity of the compounds was examined. […] The post-antibiotic effect (PAE) of the inhibitors was measured by monitoring the regrowth of bacteria following compound washout. […] Bacterial regrowth was monitored by plating samples as a function of time after wash-out and enumerating CFUs.

[6] = tested on: efflux-pump mutant strain (ΔMexABCDXY) (paEP); experiment: MIC by microbroth dilution, efflux-pump mutant P. aeruginosa; details: Pseudomonas aeruginosa, read-out: MIC (μM) (paEP)
From the text: Bacterial Strains. […] The efflux-pump deficient P. aeruginosa strain (ΔMexABCDXY), N150, was derived from PAO1.
Minimum Inhibitory Concentration (MIC) Measurements.

[7] = tested on: wild-type E. coli (K12 MG1655); experiment: PAE in wild-type E. coli in the presence of sub-MIC azithromycin; assay type: cell-based, Escherichia coli; details: 16xMIC, 37° C.; for PAE (h) (sub-MIC AZ) 16x(0.2): then media with 0.2xMIC azithromycin; for PAE (h) (sub-MIC AZ) 16x(0.4): then media with 0.4xMIC azithromycin
From the text: FIG. 6. Post-antibiotic effect in the presence of sub-MIC azithromycin.
The PAE measurements were repeated for wild-type E. coli in the presence of sub-MIC levels of the protein synthesis inhibitor azithromycin.

P. aeruginosa PAO1 [8] = experiment: Time-kill assays in P. aeruginosa PAO1; details: PAO1, 4x, 8x and 16xMIC, CAMH media, 37° C.
Procedure: Time-kill assays. […] The experimental data points are the mean values from triplicate, independent measurements, and the error bars represent the standard deviation from the mean.
Time-Kill Assays. […] Cultures were shaken at 37° C. for 6 h, and 100 μL aliquots were taken at each 1 h time interval and plated in serial dilutions in a Mueller-Hinton agar plate.

P. aeruginosa PAO1 [9] = experiment: MIC by microbroth dilution, P. aeruginosa PAO1; details: Pseudomonas aeruginosa, PAO1, read-out: MIC (μM) (PAO1)
paLpxC [10] = target: T1, paLpxC (Pseudomonas aeruginosa (strain ATCC 15692 / DSM 22644 / CIP 104116 / JCM 14847 / LMG 12228 / 1C / PRS 101 / PAO1), UniProt P47205); experiment: biochemical; assay type: binding; details: for Ki / tR (min) Fluorescence assay: 37° C.; for Ki: fluorescence competition; for tR (min) Fluorescence assay: tR = 1/koff; for koff: read-out: Koff (s^−1); for kon: read-out: Kon (μM^−1s^−1)
paLpxC [11] = target: T1, paLpxC; experiment: Spin column (Penefsky) residence time assay on paLpxC; assay type: binding; details: 37° C.; for tR (min) (Spin column assay): direct displacement; for k (min^−1), spin-column assay: first-order fit
Procedure: FIG. 14. Spin-column assay. A spin-column assay was used to quantify the residence time of inhibitors on paLpxC at 37° C. […] Samples were then subjected to size exclusion chromatography at different times using a Spin-Trap G-25 column (800×g for 2 min). […] Preincubated solutions of enzyme (10 μM) and inhibitor (10 or 20 μM) were diluted 200-fold into a solution of PT855 (1 μM) at 37° C. Aliquots of this solution were withdrawn at various times and subjected to centrifugal gel filtration chromatography using PD SpinTrap™ G-25 columns. The fluorescence of the eluate was quantified, and the data were fit to a single exponential equation to obtain koff (FIG. 14, Tables 4 and 5).
Inhibitor Residence Time Measurements using a Spin Column Assay. […] Subsequently, 10 μL of the incubation mixture was diluted into 2 mL of the same buffer containing 1 μM of PT855, and 100 μL of this mixture was then aliquoted at different time points and loaded onto a PD SpinTrap™ G-25 column (Cytiva) that had been equilibrated with buffer prior to sample loading. […] The fluorescence intensities corresponding to loading diluted EI without the fluorescent competitor and loading the competitor alone were measured separately to determine the dynamic range and endpoint of the assay. […] Rates were calculated by fitting the change in fluorescence intensity over time to a one-phase association equation in GraphPad Prism.

wild-type E. coli = experiment: MIC of azithromycin after pre-exposure of wild-type E. coli to 16xMIC inhibitor; assay type: cell-based, Escherichia coli; details: for MIC: Escherichia coli

T1 sequence (P47205 1-299): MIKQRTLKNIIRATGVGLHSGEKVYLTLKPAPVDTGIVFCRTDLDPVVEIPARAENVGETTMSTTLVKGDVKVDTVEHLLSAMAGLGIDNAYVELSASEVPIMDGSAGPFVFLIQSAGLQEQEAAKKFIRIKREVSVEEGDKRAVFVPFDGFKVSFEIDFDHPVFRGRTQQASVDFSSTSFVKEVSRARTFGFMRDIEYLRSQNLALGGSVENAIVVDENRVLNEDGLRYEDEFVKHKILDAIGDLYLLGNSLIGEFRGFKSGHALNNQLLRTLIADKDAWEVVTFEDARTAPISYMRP

Row | SMILES | PAE (h) 4x, Wild-type ([1]; 1:1000 dilution) [h] | PAE (h) 16x, Wild-type ([1]; 1:1000 dilution) [h] | PAE in wild-type E. coli [1] | MIC [2] [µM] | MIC ([3]; Escherichia coli) [µM] | PAE (h) 4x, FabZ* (FabZ* E. coli; 1:1000 dilution) | PAE (h) 16x, FabZ* (FabZ* E. coli; 1:1000 dilution) [h] | PAE in FabZ* E. coli (FabZ* E. coli) | PAE (h) 4x (P. aeruginosa PAO1 [4]) | PAE (h) 8x (P. aeruginosa PAO1 [4]) [h] | PAE (h) 16x (P. aeruginosa PAO1 [4]) [h] | MIC [6] [µM] | reduction of the starting log CFU/mL of the bacterial culture (P. aeruginosa PAO1 [8]) | MIC (P. aeruginosa PAO1 [9]) [µM] | Ki (paLpxC [10]) [nM] | tR (min) Fluorescence assay (paLpxC [10]) | koff (paLpxC [10]) [s⁻¹] | kon (paLpxC [10]) [µM⁻¹ s⁻¹] | tR (min) (Spin column assay) (paLpxC [11]) | other results
1 | CC[C@H]1OC(=O)[C@H](C)[C@@H](O[C@H]2C[C@@](C)(OC)[C@@H](O)[C@H](C)O2)[C@H](C)[C@@H](O[C@@H]2O[C@H](C)C[C@H](N(C)C)[C@H]2O)[C@](C)(O)C[C@@H](C)C(=O)[C@H](C)[C@@H](O)[C@]1(C)O [Erythromycin] | 0.7 ± 0.1 | 1.4 ± 0.4 | 0.8 ± 0.05 h and 0.7 to 1.4 h | 6.25 (≈ 4.59 µg/mL) | 50 (≈ 36.7 µg/mL) | 0.8 ± 0.2 h | 1.5 ± 0.4 | 0.8 ± 0.05 h and 0.7 to 1.4 h | – | – | – | – | – | – | – | – | – | – | – | –
2 | CC(CCn1ccc(-c2ccc(-n3nccn3)cc2)cc1=O)(C(=O)NO)S(C)(=O)=O (racemic) [PT805, 4-(4-(4-(2H-1,2,3-Triazol-2-yl)phenyl)-2-oxopyridin-1(2H)-yl)-N-hydroxy-2-methyl-2-(methylsulfonyl)butanamide] | 0 | 0 | – | 0.019 (≈ 0.0082 µg/mL) | 0.16 (≈ 0.069 µg/mL) | 1.53 ± 0.13 h and 1.5 ± 0.1 h | 2.1 ± 0.2 | – | 1.4 ± 0.1 h | 2.2 ± 0.3 | 3.4 ± 0.2 | 0.4 (≈ 0.173 µg/mL) | more than 3 logs | 1.56 (≈ 0.673 µg/mL) | – | – | – | – | – | PAE (h) 1x, Wild-type ([1]; 1xMIC for 1 h, 1:1000 dilution): 0 h; reduction of the starting log CFU/mL of the bacterial culture [5]: greater than 3 logs; PAE (h) (sub-MIC AZ) 16x(0.2) [7]: 1.4 ± 0.1 h; PAE (h) (sub-MIC AZ) 16x(0.4) [7]: 2.4 ± 0.1 h; PAE (h) 1x, FabZ* (FabZ* E. coli; 1xMIC for 1 h, 1:1000 dilution): 0.8 ± 0.1 h
3 | CC(CCn1ccc(-c2ccccc2)cc1=O)(C(=O)NO)S(C)(=O)=O (racemic) [PT901, N-hydroxy-2-methyl-2-(methylsulfonyl)-4-(2-oxo-4-phenylpyridin-1(2H)-yl)butanamide] | – | – | – | – | – | – | – | – | 0.7 h and 0.7 ± 0.1 h | 1.1 ± 0.1 | 1.3 ± 0.1 | 0.2 (≈ 0.0729 µg/mL) | more than 3 logs | 3.12 (≈ 1.14 µg/mL) | – | – | – | – | – | –
4 | COc1cc(Cc2cnc(N)nc2N)cc(OC)c1OC [Trimethoprim] | 0 | 0 | failed to generate a PAE; also recorded: neither cefamandole nor trimethoprim showed a PAE | 2.5 (≈ 0.726 µg/mL) | 2.5 (≈ 0.726 µg/mL) | 0 h | 0 | failed to generate a PAE; also recorded: neither cefamandole nor trimethoprim showed a PAE | – | – | – | – | – | – | – | – | – | – | – | –
5 | Cn1nnnc1SCC1=C(C(=O)O)N2C(=O)[C@@H](NC(=O)[C@H](O)c3ccccc3)[C@H]2SC1 [Cefamandole] | 0 | 0 | failed to generate a PAE; also recorded: neither cefamandole nor trimethoprim showed a PAE | – | – | 0 h | 0 | failed to generate a PAE; also recorded: neither cefamandole nor trimethoprim showed a PAE | – | – | – | – | – | – | – | – | – | – | – | PAE (h) (sub-MIC AZ) 16x(0.2) [7]: 0 h; PAE (h) (sub-MIC AZ) 16x(0.4) [7]: 0 h; MIC (μM) FabZ* ([2]; hyperactive FabZ strain (L85P)): 1.6 µM (≈ 0.74 µg/mL); MIC [3]: 6.25 µM (≈ 2.89 µg/mL)
6 | CC(CCn1ccc(-c2ccc(-c3cn(CC4CC4)nn3)cc2)cc1=O)(C(=O)NO)S(C)(=O)=O (racemic) [PT908, 4-(4-(4-(1-(cyclopropylmethyl)-1H-1,2,3-triazol-4-yl)phenyl)-2-oxopyridin-1(2H)-yl)-N-hydroxy-2-methyl-2-(methylsulfonyl)butanamide] | – | – | – | – | – | – | – | – | 1.6 ± 0.1 h | 2.2 ± 0.1 | 3.1 ± 0.1 | 0.4 (≈ 0.194 µg/mL) | more than 3 logs | 3.12 (≈ 1.52 µg/mL) | 0.0102 ± 0.0043 | 66.9 ± 8.6 min and 67.0 ± 8.6 min | 0.00025 ± 3e-05 | 26.4 ± 6.3 | 190.6 ± 92.0 min | –
7 | CC(CCn1ccc(-c2ccc(-c3cn(Cc4ccc(F)cc4)nn3)cc2)cc1=O)(C(=O)NO)S(C)(=O)=O (racemic) [PT909, 4-(4-(4-(1-(4-fluorobenzyl)-1H-1,2,3-triazol-4-yl)phenyl)-2-oxopyridin-1(2H)-yl)-N-hydroxy-2-methyl-2-(methylsulfonyl)butanamide] | – | – | – | – | – | – | – | – | 1.7 ± 0.1 h | 2.5 ± 0.1 | 3.5 ± 0.2 | 0.05 (≈ 0.027 µg/mL) | more than 3 logs | 1.56 (≈ 0.842 µg/mL) | 0.008 ± 0.0023 | 68.2 ± 9.6 min | 0.00025 ± 3e-05 | 33.8 ± 13.6 | 106 ± 25 min and 106.2 ± 25.0 min | k (min^−1), spin-column assay (paLpxC [11]): 0.009 ± 0.002 min⁻¹
8 | CC[C@H]1OC(=O)[C@H](C)[C@@H](O[C@H]2C[C@@](C)(OC)[C@@H](O)[C@H](C)O2)[C@H](C)[C@@H](O[C@@H]2O[C@H](C)C[C@H](N(C)C)[C@H]2O)[C@](C)(O)C[C@@H](C)CN(C)[C@H](C)[C@@H](O)[C@]1(C)O [azithromycin] | – | – | – | – | – | – | – | – | – | – | – | – | – | – | – | – | – | – | – | MIC (wild-type E. coli; bacteria pre-exposed to 16xMIC ecLpxC inhibitor, read-out: MIC of azithromycin after pre-exposure to ecLpxC inhibitor): 3.25 µM; MIC (wild-type E. coli; no pre-exposure, read-out: MIC of azithromycin, control): 12 µM; MIC of azithromycin after pre-exposure to cefamandole (wild-type E. coli; bacteria pre-exposed to 16x cefamandole): 6.2 µM; fold decrease of azithromycin MIC after ecLpxC inhibitors (wild-type E. coli; pre-treatment with 16xMIC ecLpxC inhibitors): 4 fold; fold decrease of azithromycin MIC after cefamandole (wild-type E. coli; pre-treatment with cefamandole): 2 fold
9 | COc1ccc(-c2ccc(CNC3(C(=O)NO)CCS(=O)(=O)CC3)cc2)c(F)c1 [PT920, 4-(((2′-fluoro-4′-methoxy-[1,1′-biphenyl]-4-yl)methyl)amino)-N-hydroxytetrahydro-2H-thiopyran-4-carboxamide 1,1-dioxide] | – | – | – | – | – | – | – | – | 1.0 ± 0.1 h | 1.3 ± 0.2 | 1.7 ± 0.2 | 0.03 (≈ 0.0127 µg/mL) | more than 3 logs | 0.4 (≈ 0.169 µg/mL) | 0.0379 ± 0.024 | 32.0 ± 4.8 min | 0.00053 ± 7e-05 | 16.6 ± 8.5 | 79 ± 24 min and 79.0 ± 24.0 min | k (min^−1), spin-column assay (paLpxC [11]): 0.013 ± 0.004 min⁻¹
